Test results: patent US9611502B2, “Method for simultaneously measuring activity of various enzymes by using multi-wavelength absorption single channel” (Chongqing Medical University, priority 2012, dated 2017)

Legend:
[1] = molecular target: T1, lactic acid dehydrogenase (LDH) (Oryctolagus cuniculus, UniProt P13491); assay: LDH kinetics and competitive inhibition by 4-nitroaniline (simultaneous GGT/LDH assay); format: biochemical, rabbit
T1 construct: purchased Shanghai Shangon NB0642

[2] = molecular target: T2, calf intestinal alkaline phosphatase (CIAP) (Bos taurus, UniProt P19111)
[3] = system: γ-glutamyltransferase (GGT); details: preset for data processing; cited from earlier work
[4] = Specific activity of penicillin G-labeled β-D-galactosidase after labeling; format: biochemical; details: 50 mmol/L Tris-HCl pH 7.5
Description: b) mixing 50 ul solution of the activated penicillin G with 0.50 ml of 0.44 mg β-D-galactosidase dissolved in the sodium phosphate buffer at pH 7.4, keeping the mixture at 4° C. for reaction for 120 min; the resulting mixture of the labeled β-D-galactosidase is passed through Sephadex G25 column (15 cm height and 10 mm inner diameter with a packed volume of 10 ml, equilibrated with 50 mmol/L Tris-HCl at pH 7.5) and the column is eluted with the same Tris-HCl buffer to monitor the absorbance at 280 nm; the first peak of the elution is the labeled β-D-galactosidase, with a total of 0.22 mg protein in 2.0 ml elution solution;
c) determining the specific activity after labeling: in 50 mmol/L Tris-HCl at pH 7.5, the specific activity of the labeled β-D-galactosidase is about 30 μmol·(L·min·mg)^−1 on 4-nitrophenyl-β-D-galactoside, indicating the reservation of nearly 100% activity; meanwhile, the specific activity on 4-nitro-1-napthyl-β-D-galactoside in the same buffer, its specific activity is about 100 (L·min·mg)^−1, but just about 70% of that before modification;

[5] = molecular target: T2, calf intestinal alkaline phosphatase (CIAP); set-up: purchased Sigma P0114; details: Blake et al 1982 method; cited from earlier work

T2 sequence (P19111 20-506): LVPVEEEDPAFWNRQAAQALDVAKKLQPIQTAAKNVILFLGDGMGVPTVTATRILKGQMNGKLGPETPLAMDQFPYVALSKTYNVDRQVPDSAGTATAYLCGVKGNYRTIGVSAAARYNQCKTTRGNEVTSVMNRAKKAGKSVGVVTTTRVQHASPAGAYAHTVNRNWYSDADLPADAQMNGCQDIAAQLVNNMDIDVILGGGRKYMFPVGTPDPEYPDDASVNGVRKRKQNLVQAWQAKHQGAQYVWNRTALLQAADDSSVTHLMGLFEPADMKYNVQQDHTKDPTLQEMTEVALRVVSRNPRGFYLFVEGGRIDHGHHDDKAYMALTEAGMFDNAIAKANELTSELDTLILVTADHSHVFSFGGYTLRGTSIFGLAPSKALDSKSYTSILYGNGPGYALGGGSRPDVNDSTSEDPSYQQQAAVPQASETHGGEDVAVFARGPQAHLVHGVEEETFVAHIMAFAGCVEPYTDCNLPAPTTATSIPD

Compound `Nc1ccc([N+](=O)[O-])cc1` [4-nitroaniline] has a Ki [1] of 24 µM.

In the case of `O=[N+]([O-])c1ccc(OP(=O)(O)O)c2ccccc12` [4NNPP, 4-nitronaphthylphosphate], the “specific activity of CIAP relative to that on 4-nitrophenylphosphate” value [2] is reported as “about 40%” and the “Michaelis constant of CIAP” value ([2]; 4NNPP as chromogenic substrate) is reported as “about 10 μmol/L”.

With `NC(=O)C1=CN([C@@H]2O[C@H](COP(=O)(O)OP(=O)(O)OC[C@H]3O[C@@H](n4cnc5c(N)ncnc54)[C@H](O)[C@@H]3O)[C@@H](O)[C@H]2O)C=CC1` [NADH, reduced form of nicotine adenine nucleotide] the “Michaelis constant of LDH for NADH” value ([1]; pyruvate 3.0 mmol/L, pH 7.0) was 0.040 mmol/L.

In the case of `N[C@@H](CCC(=O)Nc1ccc([N+](=O)[O-])cc1)C(=O)O` [γ-glutamyl-(4-nitro)-aniline], the “Michaelis constant of GGT for substrate (preset)” value [3] is listed as 1.00 mmol/L.

For “labeled β-D-galactosidase: β-D-galactosidase (Sigma G4155) modified with activated penicillin G”, the “reservation of activity after labeling (4-nitrophenyl-β-D-galactoside)” value [4] was “about 100%”, the “specific activity on 4-nitro-1-napthyl-β-D-galactoside” value [4] was “about 100 (L·min·mg)^−1” and the “specific activity on 4-nitro-1-napthyl-β-D-galactoside relative to that before modification” value [4] was “about 70%”. For the same compound, the “specific activity on 4-nitrophenyl-β-D-galactoside” value [4] was “about 30 μmol·(L·min·mg)^−1”.

For phenolphthalein monophosphate, the “specific activity of CIAP relative to that on p-nitrophenylphosphate” value [5] is listed as “about 7%”.
